This is an account of results in ChEMBL document CHEMBL1146800, “Structure-based design of amidinophenylurea-derivatives for factor VIIa inhibition” (Bioorg Med Chem Lett, 2004).

One assay deals with Coagulation factor X (Homo sapiens, UniProt P00742). Briefly: In vitro inhibition of coagulation factor X.
The target in a further assay is T1, Coagulation factor VII (Homo sapiens, UniProt P08709).
T1 sequence (P08709 whole entry): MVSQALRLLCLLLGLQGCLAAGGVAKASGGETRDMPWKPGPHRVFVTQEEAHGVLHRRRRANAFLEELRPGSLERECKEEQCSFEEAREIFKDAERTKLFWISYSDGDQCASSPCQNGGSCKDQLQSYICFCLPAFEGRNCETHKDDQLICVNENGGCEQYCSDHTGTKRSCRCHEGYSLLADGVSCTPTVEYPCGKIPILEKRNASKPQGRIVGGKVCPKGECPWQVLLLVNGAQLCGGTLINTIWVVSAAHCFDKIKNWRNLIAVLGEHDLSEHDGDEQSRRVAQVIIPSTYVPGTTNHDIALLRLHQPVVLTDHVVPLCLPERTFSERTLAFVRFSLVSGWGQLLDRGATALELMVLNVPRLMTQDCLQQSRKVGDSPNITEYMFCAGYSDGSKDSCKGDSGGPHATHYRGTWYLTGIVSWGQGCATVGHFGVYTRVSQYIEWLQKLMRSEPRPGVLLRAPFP
The assay can be described thus: In vitro inhibition of human coagulation factor VIIa.

The target in another assay is Prothrombin (Homo sapiens, UniProt P00734). Briefly: In vitro inhibition of thrombin.

Sequence of Coagulation factor X (P00742 41-179 limits assumed): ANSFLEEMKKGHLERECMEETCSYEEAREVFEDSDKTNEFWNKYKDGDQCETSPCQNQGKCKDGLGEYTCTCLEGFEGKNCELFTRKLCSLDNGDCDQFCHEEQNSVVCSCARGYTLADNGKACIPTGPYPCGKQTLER
Sequence of Coagulation factor X (P00742 235-488 limits assumed): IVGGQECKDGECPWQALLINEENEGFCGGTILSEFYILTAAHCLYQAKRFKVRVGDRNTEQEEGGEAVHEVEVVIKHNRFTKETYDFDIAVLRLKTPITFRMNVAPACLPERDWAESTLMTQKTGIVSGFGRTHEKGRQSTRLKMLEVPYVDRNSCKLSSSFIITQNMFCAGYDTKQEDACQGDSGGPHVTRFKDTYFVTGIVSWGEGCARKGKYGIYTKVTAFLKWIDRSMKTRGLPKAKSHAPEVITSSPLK

For orientation: Ki means a measure of affinity in units of concentration, obtained from inhibition or displacement. Read a low Ki as tighter binding. In the case of `CC(NC(=O)CNC(=O)Nc1ccc(C(=N)N)cc1)c1ccc(C(=O)Nc2ccccc2)cc1` (stereo not given), the Ki at Coagulation factor X was more than 10 µM; at Coagulation factor VII, 0.02 µM; at Prothrombin it was 12.1 µM.

As to `COc1cccc(COc2ccc(C(C)NC(=O)CNC(=O)Nc3ccc(C(=N)N)cc3)cc2)c1` (stereo not given), the results for the Ki on Coagulation factor X, on Coagulation factor VII and on Prothrombin were more than 10 µM, 0.02 µM and 2.3 µM, respectively.

With `C[C@H](NC(=O)CNC(=O)Nc1ccc(C(=N)N)cc1)c1ccc(Br)cc1`, the Ki on Coagulation factor X is more than 10 µM; on Coagulation factor VII it was 0.156 µM; on Prothrombin, 6.76 µM.

As for `CC(NC(=O)CNC(=O)Nc1ccc(C(=N)N)cc1)c1ccc(Oc2ccccc2)cc1` (stereo not given), the Ki is more than 10 µM at Coagulation factor X, 0.078 µM on Coagulation factor VII and 9.1 µM on Prothrombin.

For `CC(NC(=O)CNC(=O)Nc1ccc(C(=N)N)cc1)c1ccc(Cc2ccccc2)cc1` (stereo not given), the Ki on Coagulation factor VII amounted to 0.19 µM.

As for `Cc1cccc(C(=O)Nc2ccc(C(C)NC(=O)CNC(=O)Nc3ccc(C(=N)N)cc3)cc2)c1` (stereo not given), the Ki on Coagulation factor X was more than 10 µM; on Coagulation factor VII, 0.026 µM; at Prothrombin it was 10.9 µM.

With `COc1ccc(Oc2ccc(C(C)NC(=O)CNC(=O)Nc3ccc(C(=N)N)cc3)cc2)cc1` (stereo not given), the inhibition constant Ki on Coagulation factor X was 10.7 µM; on Prothrombin, 9.8 µM.

For `CC(NC(=O)CNC(=O)Nc1ccc(C(=N)N)cc1)c1ccc(C(=O)Nc2cccc(Oc3ccccc3)c2)cc1` (stereo not given), the Ki on Coagulation factor X was more than 10 µM; on Coagulation factor VII it was 0.043 µM; on Prothrombin, 11.9 µM.

Turning to `CC(NC(=O)CNC(=O)Nc1ccc(C(=N)N)cc1)c1ccc(N2CCOCC2)c(C(F)(F)F)c1` (stereo not given), the Ki on Coagulation factor X was more than 10 µM; at Coagulation factor VII, 0.03 µM; at Prothrombin it was 1.9 µM.

As to `CC(NC(=O)CNC(=O)Nc1ccc(C(=N)N)cc1)c1ccc(NC(=O)C2CC2)cc1` (stereo not given), the Ki at Coagulation factor X was more than 10 µM; at Coagulation factor VII, 0.047 µM; at Prothrombin, 14.5 µM.

Regarding `CC(=O)Nc1ccc(C(C)NC(=O)CNC(=O)Nc2ccc(C(=N)N)cc2)cc1` (stereo not given), the Ki on Coagulation factor X is more than 10 µM; at Coagulation factor VII it was 0.196 µM; at Prothrombin, more than 50 µM.

For the molecule `COC(=O)c1cc(C(C)NC(=O)CNC(=O)Nc2ccc(C(=N)N)cc2)ccc1OCc1ccccc1` (stereo not given), the Ki at Coagulation factor X is more than 10 µM; on Prothrombin, 0.5 µM.

Regarding `CC(NC(=O)CNC(=O)Nc1ccc(C(=N)N)cc1)c1ccc(NC(=O)C2CCNCC2)cc1` (stereo not given), the values for the inhibitory constant (Ki) on Coagulation factor X and on Prothrombin were more than 10 µM and 68.5 µM, respectively.

Regarding `CC(NC(=O)CNC(=O)Nc1ccc(C(=N)N)cc1)c1ccc(NC(=O)c2ccccc2)cc1` (stereo not given), the results for the Ki at Coagulation factor X, on Coagulation factor VII and at Prothrombin were 4.6 µM, 0.034 µM and 14.8 µM, respectively.

On to `CC(NC(=O)CNC(=O)Nc1ccc(C(=N)N)cc1)c1ccc(OCc2cccc(Cl)c2)cc1` (stereo not given), for which the results for the inhibitory constant (Ki) on Coagulation factor X, at Coagulation factor VII and at Prothrombin were more than 10 µM, 0.023 µM and 2.3 µM, respectively.

For `CC(NC(=O)CNC(=O)Nc1ccc(C(=N)N)cc1)c1ccc(N2CCOCC2)cc1` (stereo not given), the results for the inhibitory constant (Ki) on Coagulation factor X, at Coagulation factor VII and at Prothrombin were more than 10 µM, 0.142 µM and 3.2 µM, respectively.

In the case of `CC(NC(=O)CNC(=O)Nc1ccc(C(=N)N)cc1)c1ccc(N2CCOCC2)c(Br)c1` (stereo not given), the Ki on Coagulation factor X is more than 10 µM; on Coagulation factor VII, 0.015 µM; on Prothrombin it was 0.65 µM.

On Coagulation factor VII, `CC(NC(=O)CNC(=O)Nc1ccc(C(=N)N)cc1)c1cccc(OCc2ccccc2)c1` (stereo not given) registered a Ki of 0.256 µM.

For `CC(NC(=O)CNC(=O)Nc1ccc(C(=N)N)cc1)c1ccc(Cl)c(Cl)c1` (stereo not given), the Ki on Coagulation factor VII is 0.077 µM.

The molecule `C[C@@H](NC(=O)CNC(=O)Nc1ccc(C(=N)N)cc1)c1ccc2ccccc2c1` gave a Ki on Coagulation factor VII of 7 µM.

In the case of `C[C@H](NC(=O)CNC(=O)Nc1ccc(C(=N)N)cc1)c1ccc2ccccc2c1`, the inhibition constant Ki at Coagulation factor X is 6.23 µM; on Prothrombin it was 3.18 µM.

Take `N=C(N)c1ccc(NC(=O)NCC(=O)NCc2ccc(Cl)c(Cl)c2)cc1`: the inhibitory constant (Ki) on Coagulation factor X was 14.5 µM.

Consider `CC(NC(=O)CNC(=O)Nc1ccc(C(=N)N)cc1)c1ccc(NC(=O)c2cccc(Oc3ccccc3)c2)cc1` (stereo not given), for which the values for the inhibitory constant (Ki) on Coagulation factor X and on Prothrombin were more than 10 µM and 33.2 µM, respectively.

On Coagulation factor VII, `CC(NC(=O)CNC(=O)Nc1ccc(C(=N)N)cc1)c1ccc(OCc2ccccc2)cc1` (stereo not given) gave an inhibitory constant (Ki) of 0.133 µM.
